Experimental data reported in patent publication US12018048B2, “Anthelmintic depsipeptide compounds” (BOEHRINGER INGELHEIM ANIMAL HEALTH USA INC., priority 2015, dated 2024).
Values after ≈ are worked out from the molar mass of the structure shown. Read-outs that look alike come from different tables or passages of the source.

Columns and labels:
[1] = amide bond, 24-membered ring
[2] = test system: microfilaria of Dirofilaria immitis; assay: Screening method to test activity against microfilaria of Dirofilaria immitis (survival, microtitre plate); type: cell-based; settings: 72 h, read-out: median EC50 value
[3] = test system: Haemonchus contortus L1 larvae; assay: Screening method to test activity against Haemonchus contortus (L1 larval development, microtitre plate); settings: 96 h; for MIC90: read-out: median MIC90 value; for EC50: read-out: median EC50 value
Protocol: METHOD A: Screening method to test activity of compounds against Haemonchus contortus.
Twenty L1 Haemonchus contortus larvae were added to wells of a microtitre plate containing a nutrient medium and the test compound in DMSO. An analysis was conducted at 4 days to determine the extent of development of the larvae. Larvae exposed to DMSO alone served as controls.
The EC50 and MIC90 recordings were obtained using different instruments.

In the case of CC(C)C[C@H]1C(=O)O[C@H](C)C(=O)N(C)[C@@H](CC(C)(C)F)C(=O)O[C@H](Cc2ccc(C3CCOCC3)cc2)C(=O)N(C)C2(CC2)C(=O)O[C@H](C)C(=O)N(C)[C@@H](CC(C)(C)F)C(=O)O[C@H](Cc2ccc(C3CCOCC3)cc2)C(=O)N1C, the ring closure, yield after HPLC ([1]; from H-MeAcc(1-aminocyclopropanecarboxylic)-dLac-MeLeu(4-F)-dPhLac(4-oxan-4-yl)-MeLeu-dLac-MeLeu(4-F)-dPhLac(4-oxan-4-yl)-OH, BOP-Cl/DIEA, DCM, 0.87 mM) is reported as 39%.

CN1C(=O)COC(=O)[C@H](CC2CC2)N(C)C(=O)[C@@H](Cc2ccc(C3CCOCC3)cc2)OC(=O)[C@H](CC(C)(C)F)N(C)C(=O)COC(=O)[C@H](CC2CC2)N(C)C(=O)[C@@H](Cc2ccc(C3CCOCC3)cc2)OC(=O)[C@@H]1CC(C)(C)F showed a ring closure, yield after HPLC ([1]; from H-MeLeu(4-F)-dPhLac(4-oxan-4-yl)-MeAla(3-cyclopropyl)-Glycolic-MeLeu(4-F)-dPhLac(4-oxan-4-yl)-MeAla(3-cyclopropyl)-Glycolic-OH, BOP-Cl/DIEA, DCM, 2.57 mM) of 33%.

Work on C[C@H]1OC(=O)[C@H](CC2CC2)N(C)C(=O)[C@@H](Cc2ccc(N3CCOCC3)cc2)OC(=O)[C@H](CC2CC2)N(C)C(=O)[C@@H](C)OC(=O)[C@H](CC2CC2)N(C)C(=O)[C@@H](Cc2ccc(N3CCOCC3)cc2)OC(=O)[C@H](CC2CC2)N(C)C1=O [Compound 6-1A, (3S,6R,9S,12R,15S,18R,21S,24R)-3,9,15,21-tetrakis(cyclopropylmethyl)-4,10,12,16,22,24-hexamethyl-6,18-bis([[4-(morpholin-4-yl)phenyl]methyl])-1,7,13,19-tetraoxa-4,10,16,22-tetraazacyclotetracosan-2,5,8,11,14,17,20,23-octone] yielded an EC50 [2] of 100 to 1000 nM, a ring closure, yield after HPLC ([1]; from H-MeAla(cyclopropyl)-dPhLac(4-morpholino)-MeAla(cyclopropyl)-dLac-MeAla(cyclopropyl)-dPhLac(4-morpholino)-MeAla(cyclopropyl)-dLac-OH, BOP-Cl/DIEA, DCM, 1.5 mM) of 13% and an MIC90 [3] of 1 to 10 µM (≈ 1.11 to 11.1 µg/mL).

Work on CC(C)C[C@H]1C(=O)O[C@H](C)C(=O)N(C)[C@@H](CC2CC2)C(=O)O[C@H](Cc2ccc(N3CCOCC3)cc2)C(=O)N(C)[C@@H](CC(C)C)C(=O)O[C@H](C)C(=O)N(C)[C@@H](CC2CC2)C(=O)O[C@H](Cc2ccc(N3CCOCC3)cc2)C(=O)N1C [Compound 6-7A, (3S,6R,9S,12R,15S,18R,21S,24R)-3,15-bis(cyclopropylmethyl)-4,6,10,16,18,22-hexamethyl-9,21-bis(2-methylpropyl)-12,24-bis([[4-(morpholin-4-yl)phenyl]methyl])-1,7,13,19-tetraoxa-4,10,16,22-tetraazacyclotetracosan-2,5,8,11,14,17,20,23-octone] yielded an EC50 [2] of 100 to 1000 nM, a ring closure, yield after HPLC ([1]; from H-MeAla(cyclopropyl)-dPhLac(4-morpholino)-MeLeu-dLac-MeAla(cyclopropyl)-dPhLac(4-morpholino)-MeLeu-dLac-OH, BOP-Cl/DIEA, DCM, 3.2 mM) of 8% and an MIC90 [3] of 0.1 to 1 µM (≈ 0.112 to 1.12 µg/mL).

For C[C@H]1OC(=O)[C@H](CC2CC2)N(C)C(=O)[C@@H](Cc2ccc(C3CCOCC3)cc2)OC(=O)[C@H](CC(C)(C)F)N(C)C(=O)[C@@H](C)OC(=O)[C@H](CC2CC2)N(C)C(=O)[C@@H](Cc2ccc(C3CCOCC3)cc2)OC(=O)[C@H](CC(C)(C)F)N(C)C1=O [Compound 7-34A, (3S,6R,9S,12R,15S,18R,21S,24R)-3,15-bis(cyclopropylmethyl)-9,21-bis(2-fluoro-2-methylpropyl)-4,-10,12,16,22,24-hexamethyl-6,18-bis([[4-(oxan-4-yl)phenyl]methyl])-1,7,13,19-tetraoxa-4,10,16,22-te-traazacyclotetracosan-2,5,8,11,14,17,20,23-octone], the EC50 [2] was less than 100 nM, the ring closure, yield after HPLC ([1]; from H-MeLeu(4-F)-dPhLac(4-oxan-4-yl)-MeAla(3-cyclopropyl)-dLac-MeLeu(4-F)-dPhLac(4-oxan-4-yl)-MeAla(3-cyclopropyl)-dLac-OH, BOP-Cl/DIEA, DCM, 2.75 mM) was 14% and the EC50 [3] was less than 100 nM. For the same compound, the MIC90 [3] was less than 0.1 µM.

Compound CC(C)C[C@H]1C(=O)O[C@H](C)C(=O)N(C)[C@@H](CC2CC2)C(=O)O[C@H](Cc2ccc(N3CCOCC3)nc2)C(=O)N(C)[C@@H](CC(C)C)C(=O)O[C@H](C)C(=O)N(C)[C@@H](CC2CC2)C(=O)O[C@H](Cc2ccc(N3CCOCC3)nc2)C(=O)N1C [Compound 9-7A, (3S,6R,9S,12R,15S,18R,21S,24R)-3,15-bis(cyclopropylmethyl)-4,6,10,16,18,22-hexamethyl-9,21-bis(2-methylpropyl)-12,24-bis([[6-(morpholin-4-yl)pyridin-3-yl]methyl])-1,7,13,19-tetraoxa-4,10,16,22-tetraazacyclotetracosan-2,5,8,11,14,17,20,23-octone] has an EC50 [2] of 1000 to 10000 nM and a ring closure, yield after HPLC ([1]; from H-MeAla(cyclopropyl)-dLac(3-[6-(morpholin-4-yl)pyridin-3-yl])-MeLeu-dLac-MeAla(cyclopropyl)-dLac(3-[6-(morpholin-4-yl)pyridin-3-yl])-MeLeu-dLac-OH?, BOP-Cl/DIEA, DCM, 4.2 mM) of 12%.

With C[C@H]1OC(=O)C2(CC2)N(C)C(=O)[C@@H](Cc2ccc(C3CCOCC3)cc2)OC(=O)[C@H](CC(C)(C)F)N(C)C(=O)[C@@H](C)OC(=O)C2(CC2)N(C)C(=O)[C@@H](Cc2ccc(C3CCOCC3)cc2)OC(=O)[C@H](CC(C)(C)F)N(C)C1=O [Compound 969-34A, (6R,9S,12R,20R,23S,26R)-9,23-bis(2-fluoro-2-methylpropyl)-4,10,12,18,24,26-hexamethyl-6,20-bis([[4-(oxan-4-yl)phenyl]methyl])-7,13,21,27-tetraoxa-4,10,18,24-tetraazadispiro[2.11.2^[15].11^[3]]octacosan-5,8,11,14,19,22,25,28-octone] the EC50 [2] was 1000 to 10000 nM, the ring closure, yield after HPLC ([1]; from H-MeAcc(1-aminocyclopropanecarboxylic)-dLac-MeLeu(4-F)-dPhLac(4-oxan-4-yl)-MeAcc(1-aminocyclopropanecarboxylic)-dLac-MeLeu(4-F)-dPhLac(4-oxan-4-yl)-OH, BOP-Cl/DIEA, DCM, 3.2 mM) was 29% and the EC50 [3] was 1000 to 10000 nM.

With “(3S,6R,9S,12R,15S,18R,21S,24R)-3,15-bis(cyclopropylmethyl)-9,21-bis(2-fluoro-2-methylpropyl)-4,10,12,16,22,24-hexamethyl-6,18-bis([[4-(morpholin-4-yl)phenyl]methyl])-1,7,13,19-tetraoxa-4,10,16,22-tetraazacyclotetracosan-2,5,8,11,14,17,20,23-octone” the ring closure, yield after HPLC ([1]; DIEA) was 24%.
